In patent US20110130346A1, “PEPTIDE CONJUGATES FOR DELVERY OF BIOLOGICALLY ACTIVE COMPOUNDS” (ISIS INNOVATION LIMITED, priority 2008, published 2011):
“Also recorded” adds a separate entry of the source.

Experiments:
glucose transporters = assay: Example 3: glucose transporter inhibitors and hexose analogues in glucose-enhanced 2′OMePS AO uptake into TA muscle; assay type: in vivo; conditions: 8 week old mdx mice; for effect of sugar or analogue used in place of D-glucose in 2′OMePS AO formulation on dystrophin-positive fibres: same concentration as D-glucose, intramuscular, two weeks; for effect of inhibitor on the enhancing effect of 5% D-glucose formulation of 2′OMePS AO: intramuscular into TA
Source text: To investigate whether carrier-mediated glucose uptake might be implicated in the mechanism of enhanced AO uptake into muscle, we examined the effects of a range of glucose concentrations using glucose-formulated 2′OMePS AOs. This was studied again via intramuscular administration into 8 week old mdx mice. […] The activity of glucose transporters is known to be stereospecific in that only D-glucose isomers can be actively transported. To further test the idea carrier-mediated glucose uptake might be implicated in the mechanism and to rule out possible osmotic effects of the glucose formulation we investigated the activities of D- and L-glucose isomers in AO formulations. The same concentration of L-glucose was formulated with 2′OMePS AOs and delivered to 8 week old mdx mice by local intramuscular injection.
To investigate whether specific glucose transporters might be implicated directly in the mechanism of enhanced AO uptake we tested whether or not various inhibitors of glucose transporter function could abolish the enhanced uptake of 2′OMePS AOs into TA muscles in 8 week old mdx mice. Two inhibitor compounds, phloretin and phloridzin, are well-characterised inhibitors of glucose transport. […] That enhanced AO uptake and activity was dependent on a phloretin-sensitive pathway, is a hallmark of involvement of the GLUT family of facilitative glucose transporters. Given that glucose transporter-mediated glucose uptake appeared mechanistically important, we further investigated this by studying whether any products of intracellular glucose metabolism might be implicated downstream in the uptake mechanism. To do this we investigated a glucose analogue, 3-O-methyl glucose (3-OMG) that is effectively transported by glucose transporters but not subject to phosphorylation by glucokinase by using the same concentration of 3-OMG formulated with 2′OMePS AO. Two weeks following intramuscular injection TA muscles cryosections were assayed by immunohistochemistry.
For intramuscular studies the TA muscle of each experimental mdx mouse was injected with a 40 μl dose of PNA and PNA-peptide conjugates with saline at a final concentration of 125 μg/ml, and the contralateral muscle was injected with saline. For systemic intravenous injections, X μg PNA or PNA-peptide conjugates in 80 μl saline buffer were injected into tail vein of mdx mice at the final dose of 25 mg/kg and 6 mg/kg, respectively. The animals were killed at various time points after injection by CO2 inhalation and tissues were removed and snap-frozen in liquid nitrogen-cooled isopentane and stored at −80° C.
Sections of 8 μm were cut from at least two-thirds of the muscle length of TA, quadriceps, gastrocnemius, biceps, abdominal wall and diaphragm muscles and cardiac muscle at 100 μm intervals. The sections were then examined for dystrophin expression with a polyclonal antibody 2166 against the dystrophin carboxyl-terminal region. The maximum number of dystrophin-positive fibres in one section was counted using the Zeiss AxioVision fluorescence microscope. The intervening muscle sections were collected either for RT-PCR analysis and Western blot or as serial sections for immunohistochemistry. Polyclonal antibodies were detected by goat-anti-rabbit IgGs Alexa Fluro 594 (Molecular Probe, UK). Routine haematoxylin and eosin staining was used to examine overall muscle morphology and assess the level of infiltrating mononuclear cells. The serial sections were also stained with a panel of polyclonal and monoclonal antibodies for the detection of DAPC protein components. Rabbit polyclonal antibody to neuronal nitric oxide synthase (nNOS) and mouse monoclonal antibodies to β dystroglycan, α-sarcoglycan and β-sarcoglycan were used according to manufacturer's instructions (Novocastra, UK). Polyclonal antibodies were detected by goat-anti-rabbit IgGs Alexa 594 and the monoclonal antibodies by goat-anti-mouse IgGs Alexa 594 (Molecular Probe, UK). […]

[1] = system: exon and intron 23 of the dystrophin gene; assay: Example 1: intramuscular injection into TA muscle of mdx mice, count of dystrophin-positive fibres by immunohistochemistry; assay type: in vivo; conditions: for dose dependence of dystrophin induction: 5 μg, 10 μg and 20 μg intramuscular; for number of dystrophin-positive fibres per TA muscle: 20 μg intramuscular
Description: Three age groups of mdx mice were used: 20-21 days (referred to as 3 weeks; five mice for each test and control groups), 2-month old (five mice for test groups and control groups), and 5-6 months (referred to 6 months, six mice for each testing and control group). Mice were killed by cervical dislocation at desired time points, and muscles were snap-frozen in liquid nitrogen-cooled isopentane and stored at −80° C.
One tibialis anterior (TA) muscle of each experimental mdx mouse was injected with a 40 μl dose (3-week-old group injected with 10 μl) of PNA-peptide conjugates with saline at a final concentration of 125 μg/ml, and the contralateral muscle was injected with saline. The animals were sacrificed at various time points after injection, the muscles were removed and snap-frozen in liquid nitrogen-cooled isopentane and stored at −80° C. To examine the dose-response profile, 2-month old mdx mice received the injections of 10 μg and 20 μg of PNA-peptide conjugates.
Sections of 8 μm were cut from at least two-thirds of muscle length of TA muscles at 100 μm intervals. The sections were then examined for dystrophin expression with a polyclonal antibody 2166 against the dystrophin carboxyl-terminal dystrophin. The maximum number of dystrophin-positive fibres in one section was counted using the Zeiss AxioVision fluorescence microscope. The intervening muscle sections were collected either for Western blot or as serial sections for immunohistochemistry. Polyclonal antibodies were detected by goat-anti-rabbit IgGs Alexa Fluro 594 (Molecular probe). Routine H&E staining was used to examine overall muscle morphology and assess the level of infiltrating mononuclear cells.

[2] = system: exon 23 of the dystrophin transcript; assay: RT-PCR of exon 23 skipping after lipofectin transfection of H2K mdx cells; assay type: cell-based, mouse; conditions: 250 nm
Description: The H2K mdx myoblasts were cultured at 33° C. under a 10% CO2/90% air atmosphere in high-glucose DMEM supplemented with 20% fetal calf serum, 0.5% chicken embryo extract (PAA laboratories Ltd, Yeovil, UK), and 20 units/ml γ-interferon (Roche applied science, Penzberg, Germany). Cells were then treated with trypsin and plated at 2×10^4 cells per well in 24-well plates coated with 200 ug/ml gelatine (Sigma). H2K mdx cells were transfected 24 h after trypsin treatment in a final volume of 0.5 ml of antibiotic- and serum-free Opti-MEM (Life Technologies). Each well was treated with 250 nM of PNA-peptide complexed with corresponding amounts of lipofectin (weight ratio 1:2=oligolipofectin) (Life Technologies) according to the supplier's instructions. After 4 h of incubation, the transfection medium was replaced with DMEM supplemented medium.
Cells were transfected as triplicate wells with Lipofectin-Oligonucleotide complexes and total cellular RNA was then extracted 24 h after transfection with RNAeasy mini kit (Qiagen) and 200 ng of RNA template was used for 20 μl RT-PCR with OneStep RT-PCR kit (Qiagen, West Sussex, UK). The primer sequences for the initial RT-PCR were Exon20Fo 5′-[…]-3′ (SEQ ID NO: 125) and Ex26Ro 5′-[…]-3′ (SEQ ID NO: 126) for amplification of mRNA from exons 20 to 26. The cycling conditions were 95° C. for 30 sec, 55° C. for lmin, and 72° C. for 2 min for 30 cycles. […]

[3] = 2-month old mdx mice, 5 μg intramuscular
[4] = 2-month old mdx mice, single 5 μg intramuscular injection into TA, two weeks

OCC1OC(O)CC(O)C1O (stereo not drawn) [2-DG]
effect of sugar or analogue used in place of D-glucose in 2′OMePS AO formulation on dystrophin-positive fibres (glucose transporters): abolished

CO[C@@H]([C@H](O)[C@H](O)CO)[C@@H](O)C=O [3-OMG, 3-O-methyl glucose]
effect of sugar or analogue used in place of D-glucose in 2′OMePS AO formulation on dystrophin-positive fibres (glucose transporters): decrease in the number of dystrophin-positive fibres

CO[C@H]1O[C@H](CO)[C@H](O)[C@H](O)[C@H]1O [AMG]
effect of sugar or analogue used in place of D-glucose in 2′OMePS AO formulation on dystrophin-positive fibres (glucose transporters): abolished

O=C[C@H](O)[C@@H](O)[C@@H](O)[C@H](O)CO [D-galactose]
effect of sugar or analogue used in place of D-glucose in 2′OMePS AO formulation on dystrophin-positive fibres (glucose transporters): replicated

O=C[C@@H](O)[C@@H](O)[C@H](O)[C@H](O)CO [D-mannose]
effect of sugar or analogue used in place of D-glucose in 2′OMePS AO formulation on dystrophin-positive fibres (glucose transporters): replicated

O=C[C@@H](O)[C@H](O)[C@@H](O)[C@@H](O)CO [L-glucose]
effect of sugar or analogue used in place of D-glucose in 2′OMePS AO formulation on dystrophin-positive fibres (glucose transporters): significant decrease in number of dystrophin-positive myofibres

O=C(CCc1ccc(O)cc1)c1c(O)cc(O)cc1O [phloretin]
effect of inhibitor on the enhancing effect of 5% D-glucose formulation of 2′OMePS AO (glucose transporters): completely abolished

O=C(CCc1ccc(O)cc1)c1c(O)cc(O)cc1O[C@@H]1O[C@H](CO)[C@@H](O)[C@H](O)[C@H]1O [phloridzin]
effect of inhibitor on the enhancing effect of 5% D-glucose formulation of 2′OMePS AO (glucose transporters): partially but significantly abolished

ASSLNIA-S-S-Lggccaaacctcggcttacct [MSP]
dystrophin-positive fibres observed (in words) [1, 3]: large number of dystrophin-positive fibres
focal areas with strong dystrophin-positive muscle fibres [1, 3]: observed
dose dependence of dystrophin induction ([1]; 2-month old mdx mice): not significant
number of dystrophin-positive fibres ([1]; 6-month old mdx mice, single 5 μg intramuscular): 237±58

IVADNLQQQNTAPQIGTVNSQ-S-S-Lggccaaacctcggcttacct [AAV8]
removal of exon 23 from the dystrophin transcript (RT-PCR) [2]: efficient removal of exon 23
dystrophin-positive fibres observed (in words) [1, 3]: large number of dystrophin-positive fibres
dose dependence of dystrophin induction ([1]; 2-month old mdx mice): significant difference between 10 μg and 5 μg injection; also recorded: no further increase
number of dystrophin-positive fibres ([1]; 2-month old mdx mice, 10 μg intramuscular (printed 'bug')): 308±20
number of dystrophin-positive fibres per TA muscle ([1]; 2-month old mdx mice): 282±63
number of dystrophin-positive fibres [1, 4]: 171±40

TVAVNLQSSSTDPATGDVHVM-S-S-Lggccaaacctcggcttacct [AAV6]
dystrophin-positive fibres in 3-week and 6-month old mice in comparison with 2-month old mice ([1]; 5 μg intramuscular): slightly fewer dystrophin-positive fibres
dystrophin-positive fibres observed (in words) [1, 3]: large number of dystrophin-positive fibres
focal areas with strong dystrophin-positive muscle fibres [1, 3]: observed
dose dependence of dystrophin induction ([1]; 2-month old mdx mice): significant difference between 20 μg and 5, 10 μg injection
number of dystrophin-positive fibres per TA muscle ([1]; 2-month old mdx mice): 424 (±86)
number of dystrophin-positive fibres [1, 4]: 251
